Assays:
HepG2 cells = assay: GS activation: [3H]glucose incorporation into glycogen in HepG2 cells; format: cell-based; conditions: Homo sapiens, 3 hrs incubation with D-[2-3H]glucose, serum-free low-glucose DMEM, read-out: EC50 for glycogen synthesis
Protocol: HepG2 cells were obtained from the Japanese Collection of Research Bioresources and were grown in standard culture medium, a low-glucose Dulbecco's modified Eagle's medium (DMEM) containing 10% fetal calf serum supplemented with 100 U/mL penicillin and 100 μg/mL streptomycin, in a humidified and 5% CO2 atmosphere kept at 37° C. The HepG2 cells were harvested with 0.25% trypsin solution containing 1 mM EDTA, and were seeded on 12 well plates at 1×10^5 cells per well. Following a culture for 3 days, the cells were washed once with phosphate buffered saline (PBS), and were incubated with serum-free low-glucose DMEM supplemented with 100 U/mL penicillin and 100 μg/mL streptomycin. Following a culture for 3 hrs, GSK-3 inhibitor at various concentration and 2.5 μCi/mL D-[2-^3H]glucose (New England Nuclear, Boston, Mass., USA) were added to the serum-free low-glucose DMEM. A vehicle control of DMSO (0.3%, final concentration) was also used. Total volume per well of the reaction medium was 1.0 mL of serum-free low-glucose DMEM. After incubation at 37° C. for 3 hrs, medium was aspirated and cells were washed twice with PBS, and were added 0.25 mL of 1 N KOH containing 0.4 mg/mL carrier glycogen. […] [^3H]Glucose incorporation into glycogen was assessed using a liquid scintillation counter (Packard Instrument Co., Meriden, Conn., USA).

Male Crlj:CD1 (ICR) mice = assay: Glucose tolerance study in fasted ICR mice; format: in vivo; conditions: 10 mg/kg orally, 30 minutes before oral glucose load (5 g/kg), fasted 7-week-old ICR mice
Protocol: Male Crlj:CD1 (ICR) mice were obtained from Charles River Laboratories Japan (Yokohama, Japan). All mice were given a standard diet (Clea Japan, Tokyo, Japan) and tap water ad libitum. All institutional guidelines for animal care and use were applied in this study. Test compounds were suspended in 0.3% carbozymethyl-cellulose sodium salt (CMC-Na; Sigma, St. Louis, Mo.). After fasting for 15-17 hours, the test compound (3, 10, 30, 100 or 300 mg/kg) or vehicle (0.3% CMC-Na) was orally administered to 7-week-old ICR mice. Glucose solution (5 g/kg) was orally administered at 30 minutes after test compound treatment. Blood samples were collected from tail vein using capillary tubes containing EDTA-2K before test compound treatment, and at 0, 0.5, 1, and 2 hours after glucose load. The blood samples were centrifuged at 2,500×g for 5 minutes and separated plasma was kept on ice and analyze in the same day. Plasma glucose levels were determined using the glucose CII-test (Wako Pure Chemical Industries, Osaka, Japan). The sum of plasma glucose levels at 0.5 and 1 hr after glucose load was compared to that of vehicle treatment, and results were presented as percent decrease.

Row | EC50 (HepG2 cells) | SMILES | percent decrease of the sum of plasma glucose levels at 0.5 and 1 hr after glucose load vs vehicle (Male Crlj:CD1 (ICR) mice)
1 | ≤ 300 nM | C[C@H]1COc2c(NC3CCCC(c4cccnc4)C3)c(F)c(N)c3c(=O)c(C#N)cn1c23 (stereo in doubt) [Example 9, (3S)-8-amino-9-fluoro-2,3-dihydro-3-methyl-7-oxo-10-[trans-3-(3-pyridyl)cyclohexylamino]-7H-pyrido[1,2,3-de][1,4]benzoxazine-6-carbonitrile] | 
2 | ≤ 300 nM | C[C@H]1COc2c(N[C@H]3CC[C@H](c4cccnc4)CC3)c(F)c(N)c3c(=O)c(C#N)cn1c23 [Example 7, (3S)-8-amino-9-fluoro-2,3-dihydro-3-methyl-7-oxo-10-[trans-4-(3-pyridyl)cyclohexylamino]-7H-pyrido[1,2,3-de][1,4]benzoxazine-6-carbonitrile] | 
3 |  | C[C@H]1COc2c(N[C@@H]3CC[C@@H](c4ccccn4)C3)c(F)c(N)c3c(=O)c(C#N)cn1c23 [Example 2, (3S)-8-amino-9-fluoro-2,3-dihydro-3-methyl-7-oxo-10-[(1R,3R)-3-(2-pyridyl)cyclopentylamino]-7H-pyrido[1,2,3-de][1,4]benzoxazine-6-carbonitrile] | 22%

— US8071591B2, “7-cycloalkylaminoquinolones as GSK-3 inhibitors” (Kyorin Pharmaceutical Co., Ltd., priority 2009, dated 2011)
